Test results as given in US11351224B2, “Pharmaceutical composition for preventing and treating transplant rejection” (IUCF-HYU (INDUSTRY-UNIVERSITY COOPERATION FOUNDATION …, priority 2015, dated 2022).

Legend:
[1] = test system: spleen cells activated by anti-CD3 and anti-CD28 antibodies; test: IL-2 expression inhibition in spleen cells activated by anti-CD3 and anti-CD28 antibodies (ELISA); format: cell-based, mouse; details: for IL-2 expression inhibitory efficiency compared to WT: 0.5, 1, 2 or 5 μM
Description: The spleen cells activated by anti-CD3 and anti-CD28 antibodies were treated with 1 μM of each of PBS, the dNP2-ctCTLA-4 fusion product and the TAT-ctCTLA-4 fusion product, and IL-2 expression inhibitory efficiency was measured by ELISA and shown in FIG. 5.
First, a 96-well plate was coated at a concentration of 0.1 μg/well with anti-CD3 (anti-mouse CD3) and anti-CD28 (anti-mouse CD28) monoclonal antibodies at 37° C. for 5 hours, spleen cells were isolated from 7-week-old C57BL/6, and the isolated spleen cells were suspended to be single cells. The spleen cells suspended through the process were seeded at 2.5×10^5 on each well coated with anti-CD3 (anti-mouse CD3) and anti-28 (anti-mouse CD28) monoclonal antibodies, and were treated with 1 μM PBS, the dNP2-ctCTLA-4 fusion product and the TAT-ctCTLA-4 fusion product, and then activated for 24 hours.
The spleen cells activated by the anti-CD3 and anti-CD28 antibodies were each treated with the dNP2-ctCTLA-4 fusion product and the dNP2-EGFP fusion product, and IL-2 expression inhibitory efficiency was measured by ELISA and shown in FIG. 6A. At this time, ELISA was conducted using the kit produced by Biolegend Corporation in accordance with the standard protocol provided by the manufacturer. In addition, spleen cells activated by PMA/ionomycin were treated with the dNP2-ctCTLA-4 fusion product and the dNP2-EGFP fusion product, and IL-2 expression inhibitory efficiency was measured by ELISA and is shown in FIG. 6B.
At this time, the activated spleen cells were activated with the anti-CD3/CD28 antibody or PMA/ionomycin in the presence of 1 μM PBS, the dNP2-ctCTLA-4 fusion product or dNP2-EGFP fusion product for 24 hours.
The spleen cells activated by the anti-CD3 and anti-CD28 antibodies were each treated with 0.5, 1, 2 or 5 μM WT, 1YF, 2YF and DYF, and IL-2 expression inhibitory abilities were measured by ELISA and are shown in FIG. 8.
At this time, the activated spleen cells were activated with anti-CD3/CD28 antibody in the presence of 1 μM PBS, 0.5, 1, 2 or 5 μM WT, 1YF, 2YF, DYF for 24 hours.
The spleen cells activated by anti-CD3 and anti-CD28 antibodies were each treated with 0.1, 0.5, 1, 2 or 5 μM dNP2-TAMRA fusion product, dNP2-CTLA-4 fusion product and dNP2-ctCTLA-4-fm3 fusion product, and IL-2 expression inhibitory efficiency was measured by ELISA and is shown in FIG. 11. At this time, the activated spleen cells were activated with the anti-CD3/CD28 antibody in the presence of 1 μM PBS, 0.1, 0.5, 1, 2 or 5 μM dNP2-TAMRA fusion product, dNP2-CTLA-4 fusion product and dNP2-ctCTLA-4-fm3 fusion product for 24 hours.

[2] = test system: primary mouse CD4-T-cells; test: Intracellular transfer efficiency of ctCTLA-4 peptide and CPP-ctCTLA-4 fusion products in mouse spleen cells; format: cell-based; details: 1 μM, one hour, anti-HA staining
Description: Jurkat T-cells were cultured at a density of 5.0×10^5 cells/well on a 24-well plate in RPMI 1640 medium. After the cells were seeded, respective proteins were added at designated times. After culturing, the cells were collected and washed three times with phosphate buffered saline (PBS). Intracellular fluorescence was analyzed with a fluorescence-activated cell sorting (FACS) Canto II flow cytometer (BD Bioscience) and data were analyzed using FlowJo software (Tree Star, INC.). The spleen isolated from the 6-week-old C57BL/6 mice were loaded on a 60 mm×15 mm cell culture dish containing 3 ml of PBS. A single cell suspension was physically prepared using a cell strainer having pores with a size of […], 10 ml of fresh PBS was added thereto and the resulting mixture was centrifuged. […]
Specifically, the transfer efficiency was measured using “3) In vitro transfer efficiency” in the test method, which will be briefly described below.
Mouse spleen cells were cultured together with 1 μM of a ctCTLA-4 peptide, or a dNP2-ctCTLA-4 or Hph-1-ctCTLA-4 fusion product for one hour, and the ctCTLA-4 peptide or CPP-linked ctCTLA-4 fusion products, which had been transferred into cells, were stained with anti-HA antibodies. […] The cells were harvested and intracellular fluorescence was measured using a flow cytometer to measure ctCTLA-4 protein introduction efficiency in primary mouse CD4-T-cells.

CD4 T-cells = test: Inhibition of CD4 T-cell activation (CD25 expression) in mouse spleen cells (FACS); format: cell-based
Description: The present test was conducted to check whether or not the dNP2-TAMRA, dNP2-ctCTLA-4 fusion product and dNP2-ctCTLA-4-fm3 fusion product according to the present invention could inhibit activation of CD4 T-cells in the mouse model. At this time, CD25 was an activation marker which has an increasing expression level when T-cells were activated, and whether or not activation of CD4 T-cells was inhibited based on the amount of expressed CD25 was determined. Specifically, the test method was as follows.
A 96-well plate was coated with 0.1 μg of anti-CD3 and anti-CD28 antibodies in a cell incubator at 37° C. under […] for 5 hours. Then, isolated spleen cells of mice were seeded in a density of 2.5×10^5 on each well. The cells were treated with PBS or 0.1, 0.5, 1, 2 or 5 μM dNP2-TAMRA, dNP2-ctCTLA-4 or dNP2-ctCTLA-4-Fm, and then cultured in a cell incubator at 37° C. under […] for 24 hours. Then, the cells were stained with APC fluorescence-conjugated anti-CD4 mAb and PE fluorescence-fused anti-CD25 mAb at 4° C. for 20 minutes. Then, the cells produced through the aforementioned process were analyzed by a flow cytometer (FACS) to compare amounts of expressed CD25.

[3] = 0.1, 0.5, 1, 2 or 5 μM, 24 hours

Row | Substance | IL-2 expression inhibitory efficiency compared to WT ([1]; 24 hours) | IL-2 expression inhibitory effects of ctCTLA-4 fragment peptides [1] | other results
1 | 1YF: ctCTLA-4 variant, Y residue of the 1Y part substituted by F (KMLKKRSPLTTGVFVKMPPTEPECEKQFQPYFIPIN; ctCTLA-4 1YF) | significant deterioration in IL-2 expression inhibitory efficiency | – | –
2 | 2YF: ctCTLA-4 variant, Y residue of the 2Y part substituted by F (KMLKKRSPLTTGVYVKMPPTEPECEKQFQPFFIPIN; ctCTLA-4 2YF) | significant deterioration in IL-2 expression inhibitory efficiency | – | –
3 | DYF: ctCTLA-4 variant, Y residues of both 1Y and 2Y parts substituted by F (KMLKKRSPLTTGVFVKMPPTEPECEKQFQPFFIPIN; ctCTLA-4 DYF) | significant deterioration in IL-2 expression inhibitory efficiency | – | –
4 | Hph-1-ctCTLA-4: fusion product of cell-penetrating peptide Hph-1 (Sequence ID No. 9) linked to the N-end of ctCTLA-4 peptide (YARVRRRGPRRKMLKKRSPLTTGVYVKMPPTEPECEKQFQPYFIPIN; Hph-1; ctCTLA-4) | – | – | intracellular transfer efficiency [2]: further improved
5 | ctCTLA-4-fm1: peptide fragment having an amino acid sequence represented by Sequence ID No. 2 (YVKMPPTEPE; ctCTLA-4 fm1) | – | excellent IL-2 expression inhibitory effects | –
6 | ctCTLA-4-fm2: peptide fragment having an amino acid sequence represented by Sequence ID No. 3 (YFIPIN; ctCTLA-4 fm2) | – | excellent IL-2 expression inhibitory effects | –
7 | ctCTLA-4-fm3: fusion peptide of Sequence ID No. 4, wherein Sequence ID No. 2 is combined with Sequence ID No. 3 (YVKMPPTEPEYFIPIN; ctCTLA-4 fm3) | – | excellent IL-2 expression inhibitory effects | –
8 | ctCTLA-4: peptide of Sequence ID No. 1, 188th to 213th amino acid of the CTLA-4 protein cytoplasmic domain (KMLKKRSPLTTGVYVKMPPTEPECEKQFQPYFIPIN; ctCTLA-4) | – | – | intracellular transfer efficiency [2]: excellent intracellular transfer efficiency
9 | dNP2-ctCTLA-4-fm3: fusion product of fusion peptide ctCTLA-4-fm3 (Sequence ID No. 4) and cell-penetrating peptide dNP2 (Sequence ID No. 8) (KIKKVKKKGRKGSKIKKVKKKGRKYVKMPPTEPEYFIPIN; dNP2; ctCTLA-4 fm3) | – | – | IL-2 expression inhibition [1, 3]: excellent inhibitory activity against IL-2 expression, comparable to the dNP2-ctCTLA-4 fusion protein; intracellular transfer efficiency (FIG. 10) (CD4 T-cells; 0.1 μM): excellent intracellular transfer efficiency; CD25 expression in CD4 T-cells (CD4 T-cells; [3]): efficacy similar thereto
